According to patent publication US12685751B2, “Methods for gene modification of hematopoietic cells” (Centro de Investigaciones Energéticas, Medioambientales y …, priority 2018, dated 2026):

How the values were obtained:
hematopoietic cells [1] = test: VCN determination after 14 days in liquid culture of cells transduced with lentiviral vector; type: cell-based; conditions: 4 μg/mL protamine sulfate in media, 14 days liquid culture
Protocol: “Vector copy number” or “VCN” refers to the number of copies of vector in a sample divided by the number of cells. Generally the number of copies of vector is determined by quantitative polymerase chain reaction (qPCR) using a probe against the Psi sequence of the integrated provirus, and the number of cells is determined by qPCR using a probe against a human housekeeping gene for which there will be two copies per cell (one per chromosome).
An illustrative protocol for transduction of hematopoietic cells with lentiviral vectors as performed in the examples that follow is provided in FIG. 1, although in various experiments described in the examples, the transduction media included no TE, a single TE, or various combinations of TEs. Pre-stimulation included culturing the cells on plates coated with 2 ug/cm^2 RetroNectin™ (RN). […]
(§1) In another experiment, cells were transduced with either 1×10^7 TU/mL or 1×10^8 TU/mL of lentiviral vector in liquid culture in the presence of PGE2, and assayed for VCN determination after 14 days in liquid culture (FIG. 2B). […] A colony forming units (CFUs) assay was performed with transduced cells (FIG. 3A, CFCs=colony-forming cells), and VCN and percent (%) transduction were analyzed in single colonies (FIGS. 3B and 3C). […]

CD34+ cells = conditions: ex vivo culture of CD34+ cells; Heffner et al. 2018; cited from earlier work
hematopoietic cells [2] = test: CFC/CFU assay: percent transduction analysed in single colonies; type: cell-based
Protocol: “Transduction efficiency” refers to the percentage of cells transduced with at least one provirus copy. For example if 1×10^6 cells are exposed to a virus and 0.5×10^6 cells are determined to have a least one copy of a virus in their genome, then the transduction efficiency is 50%. An illustrative method for determining transduction efficiency is flow cytometry.
As used herein, “CFC” refers to colony forming cells. The colony forming cell (CFC) assay is used to study the proliferation and differentiation pattern of hematopoietic progenitors by their ability to form colonies in a semisolid medium. The number and the morphology of the colonies formed by a fixed number of input cells provide preliminary information about the ability of progenitors to differentiate and proliferate. Exemplary assays are provided in Sarma et al. Colony forming cell (CFC) assay for human hematopoietic cells. J Vis Exp. 2010 Dec. 18; (46). […]
as §1

## CCCCC(C)(C)[C@H](O)/C=C/[C@H]1[C@H](O)CC(=O)[C@@H]1C/C=C\CCCC(=O)O
Hematopoietic cells [1]; 1×10^7 or 1×10^8 TU/mL lentiviral vector, FIG. 2B
  transduction efficiency as determined by VCN/cell: increased transduction efficiency
Hematopoietic cells [1]; PGE2 10, 30 or 50 μg/mL, 2.5×10^7 or 5×10^7 TU/mL VSVG-pseudotyped GFP LV, FIG. 2A
  transduction efficiency as measured by vector copy numbers/cell: increase transduction efficiency
CD34+ cells
  level of lentiviral transgene delivery: increase the level of lentiviral transgene delivery
Hematopoietic cells [2]; highest tested concentration of PGE2, single colonies, FIG. 3C
  percent (%) transduction, cells transduced: up to 75%
Hematopoietic cells [2]; highest tested concentration, Example 2 (poloxamer F108 / LentiBOOST), FIG. 5C
  percent (%) transduction, cells transduced: up to 75%
